These results are taken from US10370328B2, “Oxindole compounds and pharmaceutical compositions thereof” (MUSC FOUNDATION FOR RESEARCH DEVELOPMENT, priority 2015, dated 2019).

Test [1] relates to rd1 mouse. Kind of test: Rd1 mouse model of RP (retina organ culture), rows of photoreceptors. The format is cell-based. The note with it: 10 nM; equivalent of postnatal day 21; P = 0.04; rd1 vehicle 1.81 ± 0.09.
Method: For the calcium-overload in vitro, the rd1 mouse was utilized (e.g., Farber et al., 1995). […] To test the potential therapeutic efficacy, compounds were added to the culture media starting the day after the start of the culture (equivalent to postnatal day 11) and replaced every 48 hours. Effects were assessed on the degeneration of photoreceptor cells morphologically at the equivalent of postnatal day 21.
In test [2] the test system is rd10 mouse. Nature of the test: Rd10 mouse model of RP, eye drops, rows of photoreceptors. It is filed as in vivo. The note with it: 100 μM eye drops once daily from postnatal day 14, assessed at postnatal day 25; P < 0.005; vehicle 2.3 ± 0.23.
From the text: To test the potential therapeutic efficacy, eye drops were formulated in 0.1% Myrj in 0.9% saline, applied once daily starting at the day of eye opening (postnatal day 14), and their effect assessed on the degeneration of photoreceptor cells morphologically at postnatal day 25.
The subject of test [3] is Balb/c mice. Nature of the test: Light model assay (light damage), eye drops, rows of photoreceptors. It is filed as in vivo, mouse. The conditions noted are these: 100 μM eye drops once daily; continuous light for 7 days; maximum effect. The text has this: The light model assay is generally accepted as a model of age related macular degeneration (AMD). […] In particular, oxidative damage has been detected by immunohistochemistry, detecting the presence of oxidized and tyrosine-phosphorylated proteins as well as the upregulation of endogenous antioxidants such as thioredoxin and glutathione peroxidase.
The light model assay was used to further test the therapeutic potential of the compounds of the invention. Photoreceptors from albino animals are very sensitive to constant light, lacking the RPE pigment to protect them. […] To test the potential therapeutic efficacy, eye drops were formulated in 0.1% Myrj in 0.9% saline, applied once daily throughout the period of light exposure, and their effect assessed on the light-induced degeneration of photoreceptor cells morphologically and electrophysiologically, 10 days after the onset of the CL exposure.

Test [4] deals with 661W or C6 cells. Kind of test: Metabolic Protection Assay (MTT), protection from calcium-ionophore A23187. The format is cell-based. The conditions noted are these: 1 μM ionophore, 24 h. The procedure: The compound 3-(4,5-Dimethylthiazol-2-yl)-2,5-diphenyltetrazolium bromide (MTT) is a tetrazolium ion that is reduced to a blue formazan dye via several families of NAD(P)H-dependent oxidoreductases. Formation of the formazan dye from MTT or other related tetrazolium dyes are commonly used as a viability assay even though, in fact, the assay is a metabolic capacity assay.
In this assay, 661W or C6 cells were maintained in DMEM supplemented with 10% serum. 100 of 70,000 cells/mL cells were seeded into each well of 96 well plates using DMEM supplemented with 5% serum. Cells were then allowed to grow to confluency for 48 hours. Representative compounds of the invention were added in 2 μL media and calcium-ionophore A23187 was then added in 1 μL for a final concentration of 1 μM and after 24 h, 20 uL of […] MTT were added to each well and the cells were incubated for another 4 h after which 100 μL of 1% SDS in 0.01 M aqueous HCl were added to each well and the plates were incubated overnight. Absorbance was measured at […] (background correction). The 1 μM ionophore A23187 caused about 50% loss in MTT signal at 24 h. Protection was calculated as the increase in absorbance of treatment groups normalized to the vehicle control.

Turning to `CCN1C(=O)C(Cc2cccc(OC)c2O)(OC(=O)N(C)C)c2cc(Cl)ccc21` (stereo not drawn) [Example 10, 5-chloro-1-ethyl-3-(2-hydroxy-3-methoxybenzyl)-2-oxoindolin-3-yl dimethylcarbamate], the “rd1 protection (# of rows)” value in test [1] is “(10 nM) 2.51 ± 0.25 (P = 0.04) # of rows”. The “rd10 protection (# of rows)” value in test [2] was “(100 μM) 2.8 ± 0.48 (P < 0.005) # of rows”. In test [3], the “LD Protection (# of rows)” value is “(100 μM) 5.8 ± 0.34 (P < 0.001) # of rows”.

Consider `CCN1C(=O)C(O)(Cc2cccc3c2OCO3)c2cc(C)ccc21` (stereo not drawn) [Example 17, 3-(benzo[d][1,3]dioxol-4-ylmethyl)-1-ethyl-3-hydroxy-5-methylindolin-2-one], for which, in test [3], the “LD Protection (# of rows)” value is listed as “(100 μM) 6.48 ± 0.13 (P < 0.001) # of rows”.

Take `CCN1C(=O)C(Cc2cccc(OC)c2OC(=O)NCCOCCO)(OC(=O)c2ccccc2)c2cc(Cl)ccc21` (stereo not drawn) [Example 12, 5-chloro-1-ethyl-3-(2-(((2-(2-hydroxyethoxy)ethyl)carbamoyl)oxy)-3-methoxybenzyl)-2-oxoindolin-3-yl benzoate]: the “LD Protection (# of rows)” value in test [3] is “(100 μM) 4.87 ± 0.22 (P < 0.01) # of rows”.

In the case of `CNc1ccc2oc(C[C@H]3O[C@@]4(CC[C@H]3C)O[C@H]([C@H](C)C(=O)c3ccc[nH]3)[C@H](C)C[C@H]4C)nc2c1C(=O)O` [Example A23187], the “loss in MTT signal” value in test [4] is “about 50%”.
